Like-named read-outs stand apart in the source and are kept apart here. Where a SMILES comes first, the peptide text is derived from it. Bridges are numbered along the chain shown (N, C = ends).
Tests used:
Kv1.1 channel (K-Kv1.1) [1] = assay: Competitive displacement of A-HgTx from complexes with K-Kv1.1 on Neuro2a cells; format: binding; conditions: for Kd: displacement of A-HgTx (2 nM) from K-Kv1.1, Neuro2a cells (Figure S7), read-out: Kap, Kv1.1
Source text: Content of secondary structures in the studied peptides
Table S1. Content of secondary structures in the studied peptides (%) according to the CD analysis.
Peptide α-helix β-sheet Turns Random coil
Studies of affinity of Ce1 and Ce4 peptides to Kv1.1 and Kv1.3 channels Affinity of MgTx to Kv1.3 channel and peptides Ce1 and Ce4 to Kv1.1 and Kv1.3 channels was studied using previously developed analytical systems based on fluorescent ligand A-HgTx and Kv1.1 (Kv1.3) channels expressed in the membrane of Neuro2a cells in the form of the conjugates with mKate2 fluorescent protein (K-Kv1.1 and K-Kv1.3). The approach based on the competitive displacement of A-HgTx (2 nM) from the complex with the channel by the increasing concentration of the studied peptide (Figure S6) and the previously approved formalism (described in the Materials and Methods section) were used to evaluate Kap values for MgTx, Ce1 and Ce4 peptides. For the complexes of MgTx, Ce1 and Ce4 with Kv1.3 channel the Kap values are 1.4±0.7, 13±8 and 30±10 nM, respectively. For the complex of Ce1 with Kv1.1 channel, Kap is equal to 11±5 nM. Since Ce4 […]
(Figure S6b), Kap of the complex between Ce4 and Kv1.1 is estimated to be higher than 300 nM.
Figure S7. Competitive displacement of A-HgTx (2 nM) from the complexes with K-Kv1.1 (a, b) and K-Kv1.3 (c) by Ce1, Ce4 and MgTx peptides. (a,c) The dependences of the Rav/Rav0 parameter (see the Materials and Methods section) on the concentration C of the added competitor are shown. Data are averaged over three independent experiments and presented as mean±SEM. (b) Histogram showing the effect of 1 µM Ce4 on the binding of A-HgTx (2 nM) to K-Kv1.1.
Molecular modeling of Kv1.2 channel and its complexes with peptide blockers
(1 picture or pasted object on this page, not shown here)

K-Kv1.2 channel = assay: Whole-cell patch-clamp of Neuro2a cells transfected with K-Kv1.2; format: cell-based, human; conditions: for block of current through K-Kv1.2: 10 nM peptide, whole-cell, representative traces (Figure 8d-g)
Protocol: The patch-clamp method (whole-cell configuration) was used to measure membrane ion currents as described earlier. All the measurements were carried out at room temperature in a buffer containing (mM) 140 NaCl, 2.8 KCl, 2 MgCl2, 2 CaCl2, 10 HEPES, and 10 glucose (pH 7.4). Resistance of the micropipette tip was 6–8 MΩ. The pipette solution contained (mM) 140 KCl, 6 CaCl2, 2 MgCl2, 2 MgATP, 0.4 NaGTP, 10 HEPES, and 20 BAPTA/KOH (pH 7.3). The holding potential was −40 mV. The membrane potential increased from −70 to +70 mV with the 20 mV step each 20 s and returned to −40 mV. The duration of voltage pulses was 200 ms.
Measurements were carried out in 24–48 h after transfection of cells. HgTx1 (2 nM), HgTx-G (7.5 nM), Ce1 (10 nM), and Ce4 (10 nM) were dissolved in the extracellular buffer.

Kv1.2 channels = conditions: mammalian cells with depolarized membranes; read-out: 50% inhibition of the Rb+ flux through Kv1.2; cited from earlier work
Source text: Kap of MgTx in our experiments is consistent with the last value.

Kv1.1 channel (K-Kv1.1) [2] = conditions: similar analytical system, read-out: Kap, Kv1.1; cited from earlier work
Source text: Table 2 Sequences of Ce1, Ce4, HgTx1, and MgTx peptides and dissociation constants (Kap, nM) of their complexes with Kv1.2, Kv1.1, and Kv1.3 channels. | column: Kap, nM

In the case of CC[C@H](C)[C@H](NC(=O)[C@H](CCCCN)NC(=O)[C@H](Cc1ccc(O)cc1)NC(=O)[C@@H]1CSSC[C@@H]2NC(=O)[C@@H]3CCCN3C(=O)[C@H](CC(C)C)NC(=O)[C@H](CC(C)C)NC(=O)[C@@H]3CSSC[C@H](NC(=O)[C@H](CCCCN)NC(=O)CNC(=O)[C@H](CC(N)=O)NC(=O)[C@H](CCSC)NC(=O)[C@H](CSSC[C@H](NC(=O)[C@H](CCCCN)NC(=O)[C@@H](NC(=O)[C@H](CC(N)=O)NC(=O)[C@@H](NC(=O)[C@@H](NC(=O)[C@@H](N)[C@@H](C)O)[C@@H](C)CC)[C@@H](C)CC)C(C)C)C(=O)N[C@@H]([C@@H](C)O)C(=O)N[C@@H](CO)C(=O)N4CCC[C@H]4C(=O)N[C@@H](CCCCN)C(=O)N[C@@H](CCC(N)=O)C(=O)N3)NC(=O)[C@H](CCCCN)NC(=O)[C@H](C)NC(=O)CNC(=O)[C@H](C)NC(=O)[C@H](Cc3c[nH]cn3)NC(=O)[C@H]([C@@H](C)CC)NC(=O)CNC(=O)[C@H](Cc3ccc(O)cc3)NC(=O)[C@H]([C@@H](C)CC)NC(=O)[C@H](CCC(=O)O)NC(=O)[C@H](CCCCN)NC2=O)C(=O)N[C@@H](CCCCN)C(=O)N1)C(=O)O [Ce4] (H-TIINVKCTSPKQCLLPCKEIYGIHAGAKCMNGKCKCYKI-OH; disulfide 7-29, 13-34, 17-36 (inferred); N-terminus and C-terminus assumed), the Kd (Kv1.1 channel (K-Kv1.1) [1]) is reported as greater than 300 nM, the “displacement of A-HgTx (2 nM) from the complex with Kv1.1 channel” value (Kv1.1 channel (K-Kv1.1) [1]; till the 1 µM concentration of peptide) is reported as “does not displace A-HgTx” and the “block of current through K-Kv1.2” value (K-Kv1.2 channel) is reported as “block current through the channel”.
For CC[C@H](C)[C@@H]1NC(=O)CNC(=O)[C@H](Cc2ccccc2)NC(=O)[C@H](CCC(N)=O)NC(=O)[C@H](C)NC(=O)[C@H](CCCCN)NC(=O)[C@@H]2CSSC[C@@H](C(=O)N[C@@H](Cc3ccc(O)cc3)C(=O)N3CCC[C@H]3C(=O)N[C@@H](Cc3c[nH]cn3)C(=O)O)NC(=O)[C@H](CCCCN)NC(=O)[C@@H]3CSSC[C@H](NC(=O)[C@H](CCC(N)=O)NC(=O)[C@H](CCCCN)NC(=O)[C@@H]4CCCN4C(=O)[C@H](CO)NC(=O)[C@H]([C@@H](C)O)NC(=O)[C@@H](NC(=O)[C@H](CCCCN)NC(=O)[C@@H](NC(=O)[C@H](CC(=O)O)NC(=O)[C@@H](NC(=O)[C@@H](NC(=O)[C@@H](N)[C@@H](C)O)C(C)C)[C@@H](C)CC)C(C)C)CSSC[C@H](NC(=O)[C@H](CCCCN)NC(=O)[C@H](C)NC(=O)CNC(=O)[C@H](C)NC(=O)[C@H](CCCNC(=N)N)NC1=O)C(=O)N[C@@H](CCSC)C(=O)N[C@@H](CC(N)=O)C(=O)NCC(=O)N[C@@H](CCCCN)C(=O)N3)C(=O)N[C@@H](CC(C)C)C(=O)N1CCC[C@H]1C(=O)N1CCC[C@H]1C(=O)N2 [HgTx1, hongotoxin 1] (H-TVIDVKCTSPKQCLPPCKAQFGIRAGAKCMNGKCKCYPH-OH; disulfide 7-29, 13-34, 17-36 (inferred); N-terminus and C-terminus assumed), the IC50 (Kv1.2 channels) is listed as 0.14 nM, the Kd (Kv1.1 channel (K-Kv1.1) [2]) is listed as 0.03 ± 0.02 nM and the “block of K-Kv1.2 channel currents” value (K-Kv1.2 channel; 2 nM HgTx1, whole-cell, room temperature, n = 10) is listed as 84 ± 2%.
In the case of CC[C@H](C)[C@H](NC(=O)[C@@H](NC(=O)[C@@H](N)[C@@H](C)O)C(C)C)C(=O)N[C@@H](CC(N)=O)C(=O)N[C@H](C(=O)N[C@@H](CCCCN)C(=O)N[C@H]1CSSC[C@@H]2NC(=O)[C@H](CCCCN)NC(=O)[C@H](C)NC(=O)CNC(=O)[C@H](C)NC(=O)[C@H](Cc3c[nH]cn3)NC(=O)[C@@H]3CCCN3C(=O)CNC(=O)[C@H](Cc3ccc(O)cc3)NC(=O)[C@H](CC(C)C)NC(=O)[C@H](CC(=O)O)NC(=O)[C@H](CCCCN)NC(=O)[C@@H]3CSSC[C@@H](C(=O)N[C@@H](Cc4ccc(O)cc4)C(=O)N[C@@H](CC(N)=O)C(=O)N[C@@H](CC(N)=O)C(=O)O)NC(=O)[C@H](CCCCN)NC(=O)[C@H](CSSC[C@H](NC(=O)[C@H](CCC(N)=O)NC(=O)[C@H](CCCCN)NC(=O)[C@@H]4CCCN4C(=O)[C@H](CO)NC(=O)[C@H]([C@@H](C)O)NC1=O)C(=O)N[C@@H](CC(C)C)C(=O)N[C@@H](CCCCN)C(=O)N1CCC[C@H]1C(=O)N3)NC(=O)[C@H](CCCCN)NC(=O)CNC(=O)[C@H](CC(N)=O)NC(=O)[C@H](CCSC)NC2=O)C(C)C [Ce1] (H-TVINVKCTSPKQCLKPCKDLYGPHAGAKCMNGKCKCYNN-OH; disulfide 7-29, 13-34, 17-36 (inferred); N-terminus and C-terminus assumed), the Kd (Kv1.1 channel (K-Kv1.1) [1]) is reported as 11 ± 5 nM and the “block of current through K-Kv1.2” value (K-Kv1.2 channel) is reported as “block current through the channel”.
